Read-outs that look alike come from different tables or passages of the source. One block for each compound: values may come before it.
How the values were obtained:
Bxpc3 = assay: Combination screen PDAC cell lines (CellTiter-Glo); type: cell-based; conditions: for IC50: agent alone, 3 days, read-out: IC50 monotherapy
Procedure: (§1) A panel of CRC and PDAC cell lines was assessed and combination partners of potential clinical relevance for the respective tumor indications were used for evaluation of combination effects (CRC: irinotecan, oxaliplatin, 5-FU, MDM2 inhibitor (RG7388), Bcl-2 inhibitor (ABT199); PDAC: Abraxane, Paclitaxel, Gemcitabine, Doxorubicin, MDM2i (RG7388), Bc12i (ABT199), Bortezomib, Cyclopamine, PARP inhibitor (PJ34)).
(§2) Cells were seeded (numbers vary depending on the cell line) in black 96-well microplate with clear, flat bottom and incubated overnight at 37° C. and 5% CO2. After checking the adherence/confluence of cells, the medium was removed and 100 μl of fresh medium containing the corresponding compound was added to each well. A sequential dilution series (1:4) of 8 concentrations per compound (n=3) were used. Corresponding DMSO concentration and media alone were used as controls.
(§3) After incubation for 3 days at 37° C. and 5% CO2, 100 μl per well CellTiter-Glo reagent (Promega) was added to the plate. Luminescence was measured after 30 minutes agitation at room temperature. IC50-values were calculated with XL-Fit software. Each experiment with one compound was repeated at least twice.
(§4) Cells were seeded (numbers vary depending on the cell line) in black 96-well microplate with clear, flat bottom and incubated overnight at 37° C. and 5% CO2. After checking the adherence/confluence of cells, the medium was removed and 100 μl of fresh medium containing the corresponding compound or combination was added to each well.
(§5) A sequential 1:3 dilution series of 9 concentrations of Drozitumab/anti-human-Fc was done on a 96-well PP-V-bottom microplate (n=6). […] 25 μl/well of the Drozitumab/anti-human-Fc series were then transferred to the cells.
(§6) After incubation for 3 days at 37° C. and 5% CO2 100 μl per well CellTiter-Glo reagent (Promega) were given to the plates. Luminescence was measured after 30 minutes agitation at room temperature.
(§7) For each concentration of Drozitumab/anti-human-Fc and Drozitumab/anti-human-Fc+compound triplicates were done on the same plate and each experiment was repeated at least twice.

Capan2 = assay: Combination screen PDAC cell lines (CellTiter-Glo); type: cell-based
Procedure: as §1, §2, §3, §4, §5, §6, §7

Aspc1 = assay: Combination screen PDAC cell lines (CellTiter-Glo); type: cell-based; conditions: for % max. inhibition (mono): first figure of mono/combo; for IC50: agent alone, 3 days, read-out: IC50 monotherapy
Procedure: as §1, §2, §3, §4, §5, §6, §7

Panc1 = assay: Combination screen PDAC cell lines (CellTiter-Glo); type: cell-based; conditions: for IC50: 3 days
Procedure: as §1, §2, §3, §4, §5, §6, §7

HCT116 = assay: Combination screen CRC cell lines (CellTiter-Glo); type: cell-based, human; conditions: for IC50: 3 days; for % max. inhibition (mono): first figure of mono/combo; for % max. inhibition (combo): second figure of mono/combo
Procedure: as §1, §2, §3, §4, §5, §6, §7

HT29 = assay: Combination screen CRC cell lines (CellTiter-Glo); type: cell-based; conditions: for IC50: 3 days; for % max. inhibition (mono): first figure of mono/combo; for Fold change IC50 (DR5 ab mono vs combo) / % max. inhibition (combo): n.s. = not significant; for % max. inhibition (combo): second figure of mono/combo
Procedure: as §1, §2, §3, §4, §5, §6, §7

SW480 = assay: Combination screen CRC cell lines (CellTiter-Glo); type: cell-based; conditions: for IC50: 3 days; for % max. inhibition (mono): first figure of mono/combo; for % max. inhibition (combo): second figure of mono/combo
Procedure: as §1, §2, §3, §4, §5, §6, §7

[1] = Homo sapiens, HT-29, 72 h, agent alone, read-out: IC50 monotherapy
[2] = Bxpc3, second figure of mono/combo, n.s. = not significant
[3] = Capan2, second figure of mono/combo, n.s. = not significant
[4] = Aspc1, second figure of mono/combo, n.s. = not significant
[5] = Panc1, second figure of mono/combo, n.s. = not significant
[6] = agent alone, read-out: IC50 monotherapy
[7] = DR5 ab + Fc titrated in combination with 1x IC50 of the named compound, read-out: IC50 combo

Fold change IC50 (DR5 ab mono vs combo) (Bxpc3; Bxpc3, n.s. = not significant): 10
Fold change IC50 (DR5 ab mono vs combo) (Aspc1; Aspc1, n.s. = not significant): 17
Fold change IC50 (DR5 ab mono vs combo) (Panc1; Panc1, n.s. = not significant): n.s.
Compound: CN(C)CC(=O)Nc1ccc2[nH]c(=O)c3ccccc3c2c1.Cl [PARPi (PJ34)]
% max. inhibition (combo) (Bxpc3; [2]): n.s.
% max. inhibition (combo) (Capan2; [3]): n.s.
% max. inhibition (mono) (Aspc1; Aspc1): 10%
% max. inhibition (combo) (Aspc1; [4]): 70%
% max. inhibition (combo) (Panc1; [5]): n.s.

Fold change IC50 (DR5 ab mono vs combo) (Bxpc3; Bxpc3, n.s. = not significant): 15
IC50 (Bxpc3; Homo sapiens, BXPC-3, 72 h, Bxpc3): 30 nM
Fold change IC50 (DR5 ab mono vs combo) (Aspc1; Aspc1, n.s. = not significant): 50
IC50 (Aspc1; Homo sapiens, 72 h, Aspc1): 2000 nM
IC50 (Panc1; Homo sapiens, PANC-1, 72 h, Panc1, DR5 ab + Fc titrated in combination with 1x IC50 of the named compound, read-out: IC50 Combo): 52.9 nM
IC50 (Panc1; Homo sapiens, PANC-1, 72 h, Panc1, agent alone, read-out: IC50 monotherapy): 2000 nM
Fold change IC50 (DR5 ab mono vs combo) (Panc1; Panc1, n.s. = not significant): 5
Compound: Nc1ccn([C@@H]2O[C@H](CO)[C@@H](O)C2(F)F)c(=O)n1 [Gemcitabine, 4-amino-1-(2-deoxy-2,2-difluoro-β-D-erythro-pentofuranosyl)pyrimidin-2(1H)-on]
% max. inhibition (mono) (Bxpc3; Bxpc3, first figure of mono/combo): 45%
% max. inhibition (combo) (Bxpc3; [2]): 80%
% max. inhibition (mono) (Capan2; Capan2, first figure of mono/combo): 35%
% max. inhibition (combo) (Capan2; [3]): 60%
% max. inhibition (mono) (Aspc1; Aspc1): 25%
% max. inhibition (combo) (Aspc1; [4]): 55%
% max. inhibition (mono) (Panc1; Panc1, first figure of mono/combo): 50%
% max. inhibition (combo) (Panc1; [5]): 75%

IC50 (HT29; [1]): 9000 nM
Fold change IC50 (DR5 ab mono vs combo) (HT29): 83
Fold change IC50 (DR5 ab mono vs combo) (SW480; n.s. = not significant): n.s.
Compound: CCc1c2c(nc3ccc(OC(=O)N4CCC(N5CCCCC5)CC4)cc13)-c1cc3c(c(=O)n1C2)COC(=O)[C@]3(O)CC [Irinotecan, (S)-4,11-diethyl-3,4,12,14-tetrahydro-4-hydroxy-3,14-dioxo1H-pyrano[3′,4′:6,7]-indolizino[1,2-b]quinolin-9-yl-[1,4′bipiperidine]-1′-carboxylate]
% max. inhibition (mono) (HCT116): 60%
% max. inhibition (combo) (HCT116): 95%
% max. inhibition (mono) (HT29): 40%
% max. inhibition (combo) (HT29): 100%
% max. inhibition (mono) (SW480): 60%
% max. inhibition (combo) (SW480): 95%

Continued, compound first:

Compound: CC1=C2C[C@H]3[C@@H](CC=C4C[C@@H](O)CC[C@@]43C)[C@@H]2CC[C@]12O[C@@H]1C[C@H](C)CN[C@H]1[C@H]2C [Cyclopamine, (3β,23R)-17,23-Epoxyveratraman-3-ol]
% max. inhibition (combo) (Bxpc3): 65/95%
% max. inhibition (mono) (Bxpc3): 65/95%
% max. inhibition (combo) (Capan2): n.s.
% max. inhibition (combo) (Aspc1): n.s.
% max. inhibition (combo) (Panc1): n.s.

Compound: O=c1[nH]cc(F)c(=O)[nH]1 [5-FU, 5-Fluoro-1H,3H-pyrimidine-2,4-dione]
IC50 (HCT116; Homo sapiens, HCT-116, 72 h, agent alone, read-out: IC50 monotherapy): 2500 nM
% max. inhibition (mono) (HCT116): 60%
% max. inhibition (combo) (HCT116): 90%
IC50 (HT29; [1]): 2500 nM
% max. inhibition (mono) (HT29): 50%
Fold change IC50 (DR5 ab mono vs combo) (HT29): 25
% max. inhibition (combo) (HT29): 85%
IC50 (SW480; Homo sapiens, 72 h, DR5 ab + Fc titrated in combination with 1x IC50 of the named compound, n.s. = not significant, read-out: IC50 combo): 0.002 nM
% max. inhibition (mono) (SW480): 50%
Fold change IC50 (DR5 ab mono vs combo) (SW480; n.s. = not significant): 70000
% max. inhibition (combo) (SW480): 65%

Compound: DR5 ab + Fc: DR5 antibody (drozitumab) + crosslinking via an anti-Fc antibody, surrogate for FAP crosslinking
IC50 (HCT116; [6]): 0.15 nM
IC50 (Bxpc3; Bxpc3): 3 nM
IC50 (Aspc1; Aspc1): 5 nM
IC50 (Panc1; Panc1, agent alone, read-out: IC50 monotherapy): 262 nM
IC50 (HT29; [6]): 2.5 nM
IC50 (SW480; [6]): 140 nM

Compound: O=C1[O][Pt]2([NH][C@@H]3CCCC[C@H]3[NH]2)[O]C1=O [Oxaliplatin, [(1R,2R)-cyclohexane-1,2-diamine](ethanedioato-O,O′)platinum(II)]
Fold change IC50 (DR5 ab mono vs combo) (HCT116): 4
IC50 (HCT116; [7]): 0.04 nM
IC50 (HCT116; [6]): 5000 nM
% max. inhibition (mono) (HCT116): 20%
% max. inhibition (combo) (HCT116): 90%
IC50 (HT29; [7]): 0.2 nM
IC50 (HT29; [6]): 5000 nM
% max. inhibition (mono) (HT29): 30%
Fold change IC50 (DR5 ab mono vs combo) (HT29): 13
% max. inhibition (combo) (HT29): 90%
% max. inhibition (mono) (SW480): 60%
Fold change IC50 (DR5 ab mono vs combo) (SW480; n.s. = not significant): n.s.
% max. inhibition (combo) (SW480): 80%

Source: US20180064808A1, “COMBINATION THERAPY OF BISPECIFIC ANTIBODIES SPECIFIC FOR FAP AND DR5 AND CHEMOTHERAPEUTIC AGENTS” (Hoffmann-La Roche Inc., priority 2014, published 2018)
